Activity calls are given as the source filed them. The calls are words filed in the database; no cut-off is given here. Square brackets hold non-standard residues; d marks the D form. Peptide text beside a SMILES is read from it. Dip = N[C@H](C(=O)O)C(c1ccccc1)c1ccccc1; hPhe = N[C@@H](CCc1ccccc1)C(=O)O; Tic = O=C(O)[C@@H]1Cc2ccccc2CN1; Pip = O=C(O)[C@@H]1CCCCN1; hSer = N[C@@H](CCO)C(=O)O; Nva = CCC[C@H](N)C(=O)O
How the values were obtained:
[1] = biological target: T1, Thioredoxin reductase 1, cytoplasmic (Homo sapiens) (UniProt Q16881); assay: Inhibition of oxidized human TXR1 reductase activity by insulin reduction assay
T1 sequence (whole entry): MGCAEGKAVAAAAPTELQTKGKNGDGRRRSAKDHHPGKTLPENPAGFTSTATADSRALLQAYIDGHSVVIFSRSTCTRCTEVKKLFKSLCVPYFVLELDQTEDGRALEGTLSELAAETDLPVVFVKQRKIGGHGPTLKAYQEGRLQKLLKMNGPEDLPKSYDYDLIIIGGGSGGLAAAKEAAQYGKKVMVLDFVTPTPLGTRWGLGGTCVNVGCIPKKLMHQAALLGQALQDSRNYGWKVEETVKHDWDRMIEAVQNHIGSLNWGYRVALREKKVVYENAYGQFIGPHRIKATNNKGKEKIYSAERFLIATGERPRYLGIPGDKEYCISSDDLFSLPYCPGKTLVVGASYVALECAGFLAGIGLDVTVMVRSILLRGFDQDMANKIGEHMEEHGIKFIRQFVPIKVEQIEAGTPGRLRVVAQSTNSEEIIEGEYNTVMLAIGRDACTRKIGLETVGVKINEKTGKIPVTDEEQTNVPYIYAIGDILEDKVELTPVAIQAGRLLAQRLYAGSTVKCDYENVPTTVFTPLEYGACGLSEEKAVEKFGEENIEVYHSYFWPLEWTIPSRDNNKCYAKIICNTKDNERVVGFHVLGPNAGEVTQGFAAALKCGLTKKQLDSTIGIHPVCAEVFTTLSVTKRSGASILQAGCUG

[2] = biological target: T2, Thiol:disulfide interchange protein DsbA (Escherichia coli (strain K12), UniProt P0AEG4); assay: Binding affinity to oxidized Escherichia coli DsbA by isothermal titration calorimetry assay
T2 sequence (P0AEG4 whole entry): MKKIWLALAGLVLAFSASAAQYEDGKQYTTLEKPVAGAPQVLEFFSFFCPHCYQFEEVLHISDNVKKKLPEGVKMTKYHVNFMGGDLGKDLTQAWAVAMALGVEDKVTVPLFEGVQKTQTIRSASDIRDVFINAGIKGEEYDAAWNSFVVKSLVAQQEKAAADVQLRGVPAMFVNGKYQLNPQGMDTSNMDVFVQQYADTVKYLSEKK

[3] = biological target: T3, Thiol:disulfide interchange protein DsbA (Escherichia coli (strain K12)) (UniProt P0AEG4); assay: Binding affinity to Escherichia coli DsbA assessed as change in melting temperature at 250 uM by Thermal shift assay
T3 sequence (whole entry): T2 sequence (P0AEG4 whole entry)

[4] = biological target: T3, Thiol:disulfide interchange protein DsbA (Escherichia coli (strain K12)); assay: Binding affinity to Escherichia coli DsbA assessed as change in melting temperature at 4 mM by Thermal shift assay
[5] = biological target: T3, Thiol:disulfide interchange protein DsbA (Escherichia coli (strain K12)); assay: Binding affinity to Escherichia coli DsbA assessed as change in melting temperature at 1 mM by Thermal shift assay
[6] = biological target: T3, Thiol:disulfide interchange protein DsbA (Escherichia coli (strain K12)); assay: Binding affinity to Escherichia coli DsbA assessed as change in melting temperature at 2 mM by Thermal shift assay
[7] = biological target: T3, Thiol:disulfide interchange protein DsbA (Escherichia coli (strain K12)); assay: Binding affinity to Escherichia coli DsbA assessed as change in melting temperature at 500 uM by Thermal shift assay
[8] = biological target: T3, Thiol:disulfide interchange protein DsbA (Escherichia coli (strain K12)); assay: Binding affinity to Escherichia coli DsbA assessed as change in melting temperature at 125 uM by Thermal shift assay

Kd [2]	Kd ([2]; read-out: Kd) [µM]	Molecule	other results
–	–	CC(=O)N1CCC[C@H]1C(=O)N[C@@H](Cc1c[nH]c2ccccc12)C(=O)N[C@@H](C)C(=O)N[C@H](C(=O)N[C@@H](CS)C(=O)N[C@@H](CC(=O)O)C(=O)N[C@@H](CO)C(N)=O)[C@@H](C)O	inhibition [1]: inactive
Not Active	–	CCC[C@H](NC(=O)[C@@H](NC(=O)[C@H](C)NC(=O)[C@H](Cc1c[nH]c2ccccc12)NC(=O)[C@@H]1CCCN1C(=O)[C@H](CO)NC(=O)[C@@H]1CCCN1C(C)=O)[C@@H](C)O)C(N)=O (Ac-PSPWAT[Nva]-NH2)	–
Not Active	–	CC(=O)N1CCC[C@H]1C(=O)N[C@@H](CO)C(=O)N1CCC[C@H]1C(=O)N[C@@H](Cc1c[nH]c2ccccc12)C(=O)N[C@@H](C)C(=O)N[C@H](C(=O)N[C@@H](CCO)C(N)=O)[C@@H](C)O (Ac-PSPWAT[hSer]-NH2)	–
–	9.7	CC(=O)N1CCC[C@H]1C(=O)N[C@@H](CO)C(=O)N1CCC[C@H]1C(=O)N[C@H](C(=O)N[C@@H](C)C(=O)N[C@H](C(=O)N[C@@H](CS)C(N)=O)[C@@H](C)O)C(c1ccccc1)c1ccccc1 (Ac-PSP[Dip]ATC-NH2)	–
–	14.9	CC(=O)N1CCC[C@H]1C(=O)N[C@@H](CO)C(=O)N1CCC[C@H]1C(=O)N[C@@H](CCc1ccccc1)C(=O)N[C@@H](C)C(=O)N[C@H](C(=O)N[C@@H](CS)C(N)=O)[C@@H](C)O (Ac-PSP[hPhe]ATC-NH2)	–
–	12	CC(=O)N1CCC[C@H]1C(=O)N[C@@H](CO)C(=O)N1CCCC[C@H]1C(=O)N[C@@H](Cc1c[nH]c2ccccc12)C(=O)N[C@@H](C)C(=O)N[C@H](C(=O)N[C@@H](CS)C(N)=O)[C@@H](C)O (Ac-PS[Pip]WATC-NH2)	–
–	13.1	CC(=O)N1CCC[C@H]1C(=O)N[C@@H](CO)C(=O)N1Cc2ccccc2C[C@H]1C(=O)N[C@@H](Cc1c[nH]c2ccccc12)C(=O)N[C@@H](C)C(=O)N[C@H](C(=O)N[C@@H](CS)C(N)=O)[C@@H](C)O (Ac-PS[Tic]WATC-NH2)	–
–	8.3	CC(=O)N1CCC[C@H]1C(=O)N[C@@H](CCc1ccccc1)C(=O)N[C@@H](C)C(=O)N[C@H](C(=O)N[C@@H](CS)C(=O)N[C@@H](CC(=O)O)C(=O)N[C@@H](CO)C(N)=O)[C@@H](C)O (Ac-P[hPhe]ATCDS-NH2)	–
–	2.7	Ac-ASPWATCDF-NH2	–
–	2.8	Ac-PAPWATCDF-NH2	–
–	5.9	Ac-PFATCDF-NH2	–
–	13.1	Ac-PFATCDS-NH2	ΔTm [3]: 1.7 °C; ΔTm [4]: 9 °C; ΔTm [5]: 5.3 °C; ΔTm [6]: 7.2 °C; ΔTm [7]: 3.3 °C; ΔTm [8]: 0.6 °C
–	5.5	Ac-PSAWATCDF-NH2	–
–	5.8	Ac-PSPAATCDF-NH2	–
–	11.3	Ac-PSPWAACDF-NH2	–
Not Active	–	Ac-PSPWATADF-NH2	–
–	18	Ac-PSPWATC-NH2	–
–	3.1	Ac-PSPWATCAF-NH2	–
–	10.7	Ac-PSPWATCD-NH2	–
–	4.4	Ac-PSPWATCDA-NH2	–
–	2.9	Ac-PSPWATCDF-NH2	–
Not Active	–	Ac-PSPWATIDF-NH2	–
Not Active	–	Ac-PSPWATM-NH2	–
Not Active	–	Ac-PSPWATN-NH2	–
Not Active	–	Ac-PSPWATSDF-NH2	–
Not Active	–	Ac-PSPWATVDF-NH2	–
–	3	Ac-PWATCDF-NH2	–
Not Active	–	Ac-PWATSDS-NH2	ΔTm [3]: 0.2 °C; ΔTm [4]: 2.9 °C; ΔTm [5]: 0.6 °C; ΔTm [6]: 1.5 °C; ΔTm [7]: 0.2 °C; ΔTm [8]: 0.1 °C
–	2.2	Ac-SPWATCDF-NH2	–

Reference: ChEMBL document CHEMBL3396965, “Peptide inhibitors of the Escherichia coli DsbA oxidative machinery essential for bacterial virulence” (J Med Chem, 2015)
